Experimental data published in patent US9763448B2, “Fungicidal mixtures I comprising strobilurin-type fungicides” (BASF SE, priority 2013, dated 2017).
Where two headings read alike, the source gives them in different places.

Key:
Format in all cases: cell-based
[1] = test system: Phytophthora infestans; details: 0.063 ppm, single compound; 7 days after inoculation, 18° C.
[2] = test system: Pyricularia oryzae; details: single compound, 7 days after inoculation, 18° C.
[3] = test system: Leptosphaeria nodorum; experiment: Microtest: activity against the wheat leaf spot pathogen Leptosphaeria nodorum (MTP, absorption at 405 nm); details: 0.004 ppm, single compound; 7 days after inoculation, 18° C.

Row | Structure (SMILES) | Observed efficacy [1] | Observed efficacy ([2]; 0.00025 ppm) | Observed efficacy [3] | Observed efficacy ([2]; 0.016 ppm)
1 | CNC(=O)C(=N/OC)/C(C)=C\COc1ccn(-c2ccc(Cl)cc2F)n1 [I-13, (Z,2E)-5-[1-(4-chloro-2-fluoro-phenyl)pyrazol-3-yl]oxy-2-methoxyimino-N,3-dimethyl-pent-3-enamide] | 4% | 7% | 21% | –
2 | OC(Cn1cncn1)(c1ccc(Oc2ccc(Cl)cc2)cc1C(F)(F)F)C1CC1 (stereo not drawn) [II-2, 1-[4-(4-chlorophenoxy)-2-(trifluoromethyl)phenyl]-1-cyclopropyl-2-(1,2,4-triazol-1-yl)ethanol] | – | – | – | 6%
3 | CC(O)(Cn1cncn1)c1ccc(Oc2ccc(Cl)cc2)cc1C(F)(F)F (stereo not drawn) [II-6, 2-[4-(4-chlorophenoxy)-2-(trifluoromethyl)phenyl]-1-(1,2,4-triazol-1-yl)propan-2-ol] | 7% | – | 7% | –
